The conditions of this data set: minipig, in vivo.

On to `CC(C(=O)OCCCCCCO[N+](=O)[O-])c1cccc(C(=O)c2ccccc2)c1` (stereo not drawn) [Compound of formula Ic], for which the “oral bioavailability, expressed as the systemic exposure to ketoprofen relative to intravenous ketoprofen” value is 82%.
Still for that read-out and setting: next, `CC(C(=O)OCc1ccc(CO[N+](=O)[O-])cc1)c1cccc(C(=O)c2ccccc2)c1` (stereo not drawn) [Compound of formula If]: 80%.
On to `O=C(Cc1ccccc1Nc1c(Cl)cccc1Cl)OCCCCO[N+](=O)[O-]` [Compound of formula Ig], for which the “oral bioavailability, expressed as the systemic exposure to diclofenac relative to intravenous diclofenac” value is recorded as 85%.

These data come from patent US20040096494A1, “Composition” (priority 2003, published 2004).
